Reference: US9187471B2, “Pyrido [4,3-b] indole and pyrido [3,4-b] indole derivatives and methods of use” (Medivation Technologies, Inc., priority 2010, dated 2015)

Key:
[1] = molecular target: T1, rat adrenergic α1A receptor (Rattus norvegicus, UniProt P43140); assay: Adrenergic α1A radioligand binding ([3H]Prazosin); conditions: read-out: Adrenergic (0.1 μM) a1A, percent inhibition of specific binding; compound at 0.1 μM; 0.25 nM [3H]Prazosin
T1 construct: rat adrenergic α1A receptor obtained from Wistar Rat submaxillary glands; from tissue; host or cells: Wistar rat submaxillary glands
T1 sequence (P43140 1-466): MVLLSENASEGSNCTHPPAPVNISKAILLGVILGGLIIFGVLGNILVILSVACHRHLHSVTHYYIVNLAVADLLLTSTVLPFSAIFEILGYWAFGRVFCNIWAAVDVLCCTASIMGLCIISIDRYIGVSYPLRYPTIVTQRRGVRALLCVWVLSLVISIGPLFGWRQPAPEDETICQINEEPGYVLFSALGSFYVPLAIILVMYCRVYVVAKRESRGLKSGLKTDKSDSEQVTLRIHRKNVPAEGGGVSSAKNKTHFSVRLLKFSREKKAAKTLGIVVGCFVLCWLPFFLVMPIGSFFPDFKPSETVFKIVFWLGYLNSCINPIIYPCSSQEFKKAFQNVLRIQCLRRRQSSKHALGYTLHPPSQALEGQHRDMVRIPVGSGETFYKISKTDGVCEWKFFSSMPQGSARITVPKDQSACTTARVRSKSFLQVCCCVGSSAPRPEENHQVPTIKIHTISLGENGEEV
Protocol: To evaluate in radioligand binding assays the activity of compounds of the invention, rat adrenergic α1A receptor obtained from Wistar Rat submaxillary glands (Michel, A. et al, Br. J. Pharmacol. 98:883, 1989) in a modified Tris-HCl buffer (50 mM Tris-HCl buffer, pH 7.4, 0.5 mM EDTA) was used. Compounds of the invention were incubated with 0.25 nM [^3H]Prazosin for 60 min at 25° C. Non-specific binding was estimated in the presence of 10 μM phentolamine Receptor proteins were filtered and washed, the filters were then counted to determine [^3H]Prazosin specifically bound. […] Compounds of the invention were tested in this biochemical assay and percent inhibition of specific binding was determined.

[2] = molecular target: T2, human recombinant adrenergic α2C receptor (Homo sapiens, UniProt P18825); assay: Adrenergic α2C radioligand binding ([3H]MK-912); conditions: read-out: Adrenergic (0.1 μM) a2C, percent inhibition of specific binding; compound at 0.1 μM; 1 nM [3H]MK-912
T2 construct: expressed in transfected cells; host or cells: insect Sf9 cells
T2 sequence (P18825 1-462): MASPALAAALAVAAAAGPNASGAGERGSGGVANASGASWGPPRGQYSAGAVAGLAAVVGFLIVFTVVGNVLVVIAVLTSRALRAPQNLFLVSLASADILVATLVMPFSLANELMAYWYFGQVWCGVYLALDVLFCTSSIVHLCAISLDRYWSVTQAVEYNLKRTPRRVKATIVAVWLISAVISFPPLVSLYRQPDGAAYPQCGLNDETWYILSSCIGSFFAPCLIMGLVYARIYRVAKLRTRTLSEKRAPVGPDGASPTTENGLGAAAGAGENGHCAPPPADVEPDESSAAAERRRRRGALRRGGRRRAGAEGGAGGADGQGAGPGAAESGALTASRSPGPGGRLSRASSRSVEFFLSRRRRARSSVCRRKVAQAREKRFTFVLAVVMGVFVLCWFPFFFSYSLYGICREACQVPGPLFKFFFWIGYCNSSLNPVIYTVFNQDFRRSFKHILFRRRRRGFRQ
Protocol: To evaluate in radioligand binding assays the activity of compounds of the invention, human recombinant adrenergic α2C receptor expressed in insect Sf9 cells (Uhlen, S. et al, J. Pharmacol. Exp. Ther. 271:1558, 1994) in a modified Tris-HCl buffer (50 mM Tris-HCl, pH 7.4, 12.5 mM MgCl2, 2 mM EDTA) was used. Compounds of the invention were incubated with 1 nM [^3H]MK-912 for 60 min at 25° C. Non-specific binding was estimated in the presence of 10 μM WB-4101. Receptor proteins were filtered and washed, the filters were then counted to determine [^3H]MK-912 specifically bound. […] Compounds of the invention were tested in this biochemical assay and percent inhibition of specific binding was determined.

[3] = molecular target: T3, human recombinant serotonin (5-Hydroxytryptamine) 5-HT2A receptor (Homo sapiens, UniProt P28223); assay: Serotonin 5-HT2A radioligand binding ([3H]Ketanserin); conditions: compound at 0.1 μM; read-out: Inhibition of ligand binding, Serotonin 5-HT2A (percent inhibition of specific binding)
T3 construct: expressed in transfected cells; host or cells: CHO-K1
T3 sequence (P28223 whole entry): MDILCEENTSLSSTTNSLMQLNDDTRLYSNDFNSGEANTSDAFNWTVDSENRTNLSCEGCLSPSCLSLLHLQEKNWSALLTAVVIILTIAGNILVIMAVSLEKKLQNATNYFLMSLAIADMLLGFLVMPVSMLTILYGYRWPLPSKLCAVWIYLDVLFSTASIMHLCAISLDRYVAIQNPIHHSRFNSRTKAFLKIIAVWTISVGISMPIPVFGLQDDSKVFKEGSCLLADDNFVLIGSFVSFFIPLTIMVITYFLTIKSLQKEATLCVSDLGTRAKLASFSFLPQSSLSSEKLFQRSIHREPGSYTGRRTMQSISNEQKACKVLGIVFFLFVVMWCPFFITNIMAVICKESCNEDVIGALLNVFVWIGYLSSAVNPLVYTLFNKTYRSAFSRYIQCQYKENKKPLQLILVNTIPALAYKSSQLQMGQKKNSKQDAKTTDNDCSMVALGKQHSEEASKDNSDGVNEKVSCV
Protocol: Compounds of the invention were incubated with 0.5 nM [^3H]Ketanserin for 60 min at 25° C. Non-specific binding was estimated in the presence of 1 μM Mianserin. Receptor proteins were filtered and washed, the filters were then counted to determine [^3H]Ketanserin specifically bound.

[4] = molecular target: T4, human recombinant serotonin (5-Hydroxytryptamine) 5-HT2C receptor (Homo sapiens, UniProt P28335); assay: Serotonin 5-HT2C radioligand binding ([3H]Mesulergine); conditions: compound at 0.1 μM; read-out: Inhibition of ligand binding, Serotonin 5-HT2C (percent inhibition of specific binding)
T4 construct: expressed in transfected cells; host or cells: CHO-K1
T4 sequence (P28335 33-458): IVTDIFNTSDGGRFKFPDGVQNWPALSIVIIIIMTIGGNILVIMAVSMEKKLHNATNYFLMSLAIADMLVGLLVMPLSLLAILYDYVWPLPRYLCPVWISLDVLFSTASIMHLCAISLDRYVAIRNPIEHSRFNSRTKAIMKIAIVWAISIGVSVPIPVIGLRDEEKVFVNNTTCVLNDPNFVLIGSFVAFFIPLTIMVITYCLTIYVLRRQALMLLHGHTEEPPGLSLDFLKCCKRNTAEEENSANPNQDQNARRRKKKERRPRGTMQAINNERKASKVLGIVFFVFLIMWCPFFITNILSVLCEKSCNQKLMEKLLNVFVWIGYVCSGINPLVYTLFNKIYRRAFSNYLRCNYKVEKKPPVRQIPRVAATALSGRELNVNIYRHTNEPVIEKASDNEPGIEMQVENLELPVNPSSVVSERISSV
Protocol: Compounds of the invention were incubated with 1 nM [^3H]Mesulergine for 60 min at 25° C. Non-specific binding was estimated in the presence of 1 μM Mianserin. Receptor proteins were filtered and washed, the filters were then counted to determine [^3H]Mesulergine specifically bound.

[5] = molecular target: T5, human recombinant serotonin (5-Hydroxytryptamine) 5-HT5A receptor (Homo sapiens, UniProt P47898); assay: Serotonin 5-HT5A radioligand binding ([3H]LSD); conditions: compound at 0.1 μM; read-out: Inhibition of ligand binding, Serotonin 5-HT5A (percent inhibition of specific binding)
T5 construct: expressed in transfected cells; host or cells: CHO-K1
T5 sequence (P47898 whole entry): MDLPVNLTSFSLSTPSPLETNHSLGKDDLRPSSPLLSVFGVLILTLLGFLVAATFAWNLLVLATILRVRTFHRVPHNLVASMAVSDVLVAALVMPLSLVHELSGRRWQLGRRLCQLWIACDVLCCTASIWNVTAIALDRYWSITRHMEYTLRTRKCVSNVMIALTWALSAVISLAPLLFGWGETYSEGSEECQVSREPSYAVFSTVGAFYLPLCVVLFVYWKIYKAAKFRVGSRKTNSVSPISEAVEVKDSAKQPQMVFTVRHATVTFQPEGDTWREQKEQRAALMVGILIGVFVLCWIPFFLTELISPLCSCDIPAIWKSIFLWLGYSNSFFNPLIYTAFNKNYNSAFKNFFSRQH
Protocol: Compounds of the invention were incubated with 1.7 nM [^3H]Lysergic acid diethylamide (LSD) for 60 min at 37° C. […] Receptor proteins were filtered and washed, the filters were counted to determine [^3H]LSD specifically bound.

SMILES	inhibition at 0.1 µM [1]	inhibition at 0.1 µM [2]	inhibition at 0.1 µM [3]	inhibition at 0.1 µM [4]	inhibition at 0.1 µM [5]
Cc1ccc2c(c1)c1c(n2-c2ccc(-c3c(C)noc3C)cn2)CCN(C)C1 [Compound No. 137, 4-(6-(2,8-dimethyl-3,4-dihydro-1H-pyrido[4,3-b]indol-5(2H)-yl)pyridin-3-yl)-3,5-dimethylisoxazole]	17%	-1%	62%	75%	31%
Cc1ccc2c(c1)c1c(n2-c2cccc(-c3ccc(C)nc3)c2)CCN(C)C1 [Compound 60, 2,8-dimethyl-5-(3-(6-methylpyridin-3-yl)phenyl)-2,3,4,5-tetrahydro-1H-pyrido[4,3-b]indole]	-2%	21%	102%	53%	62%
Cc1ccc2c(c1)c1c(n2-c2cccc(-c3ccc(F)cc3)c2)CCN(C)C1 [Compound 61, 5-(4′-fluorobiphenyl-3-yl)-2,8-dimethyl-2,3,4,5-tetrahydro-1H-pyrido[4,3-b]indole]	-5%	8%	102%	81%	24%
Cc1ccc2c(c1)c1c(n2-c2ccc3nc(C)ccc3c2)CCN(C)C1 [Compound No. 157, 2,8-dimethyl-5-(2-methyl-quinolin-6-yl)-2,3,4,5-tetrahydro-1H-pyrido[4,3-b]indole]	7%	-1%	88%	88%	20%
Cc1ccc2c(c1)c1c(n2-c2cscc2-c2c(C)noc2C)CCN(C)C1 [Compound 62]	9%	33%	68%	56%	54%
CC(=O)Nc1ccc(-c2cscc2-n2c3c(c4cc(C)ccc42)CN(C)CC3)cn1 [Compound 56]	49%	2%	31%	38%	51%
CC(=O)Nc1ccc(-c2ccccc2-n2c3c(c4cc(C)ccc42)CN(C)CC3)cn1 [Compound No. 83, N-(5-(2-(2,8-dimethyl-3,4-dihydro-1H-pyrido[4,3-b]indol-5(2H)-yl)phenyl)pyridin-2-yl)acetamide]	23%	-5%	41%	15%	11%
Cc1ccc2c(c1)c1c(n2-c2cscc2-c2ccc3cnccc3c2)CCN(C)C1 [Compound No. 68]	71%	29%	35%	10%	78%
Cc1ccc2c(c1)c1c(n2-c2cccc(-c3ccc(F)nc3)c2)CCN(C)C1 [Compound 44, 5-(3-(6-fluoropyridin-3-yl)phenyl)-2,8-dimethyl-2,3,4,5-tetrahydro-1H-pyrido[4,3-b]indole]	15%	10%	103%	83%	61%
Cc1ccc2c(c1)c1c(n2-c2cscc2-c2ccc(F)nc2)CCN(C)C1 [Compound 35]	78%	47%	82%	74%	66%
Cc1ccc2c(c1)c1c(n2-c2cscc2-c2ccc(C)s2)CCN(C)C1 [Compound No. 79]	79%	77%	77%	92%	93%
Cc1ccc2c(c1)c1c(n2-c2ccccc2-c2ccc3c(ccn3C)c2)CCN(C)C1 [Compound No. 85, 2,8-dimethyl-5-(2-(1-methyl-1H-indol-5-yl)phenyl)-2,3,4,5-tetrahydro-1H-pyrido[4,3-b]indole]	24%	46%	49%	50%	50%
Cc1ccc2c(c1)c1c(n2-c2ccccc2-c2ccnn2C)CCN(C)C1 [Compound 32]	27%	20%	59%	50%	26%
CNC(=O)c1ccc(-c2ccccc2-n2c3c(c4cc(C)ccc42)CN(C)CC3)cc1 [Compound No. 72, 2′-(2,8-dimethyl-3,4-dihydro-1H-pyrido[4,3-b]indol-5(2H)-yl)-N-methylbiphenyl-4-carboxamide]	36%	1%	35%	16%	14%
Cc1ccc2c(c1)c1c(n2-c2cccc(-c3ccc4c(ccn4C)c3)c2)CCN(C)C1 [Compound 53, 2,8-dimethyl-5-(3-(1-methyl-1H-indol-5-yl)phenyl)-2,3,4,5-tetrahydro-1H-pyrido[4,3-b]indole]	-11%	7%	89%	47%	11%
Cc1ccc2c(c1)c1c(n2-c2ccc(-c3cccc4[nH]ncc34)cn2)CCN(C)C1 [Compound No. 147, 5-(5-(1H-indazol-4-yl)pyridin-2-yl)-2,8-dimethyl-2,3,4,5-tetrahydro-1H-pyrido[4,3-b]indole]	37%	1%	62%	69%	23%
